pEC50: −log10 of the molar value. Counter-ions that a name gives are not always drawn. Like-named read-outs stand apart in the source and are kept apart here.
Legend:
[1] = system: SARS-CoV-2-WA1 strain; test: Huh7 cellular infectivity assay with SARS-CoV-2 (high content bioimaging); type: cell-based; conditions: for efficacy in preventing SARS-CoV-2 infection: Huh-7 cells, normalized to infected and uninfected vehicle wells
Description: (§1) FIGS. 3A-D. Cysteamine efficacy in the Huh7 cellular infectivity assay with SARS-CoV-2-WA1 strain. Cells are infected at 0.2 MOI and are incubated for 48 hours to allow for the initial infection and propagation to surrounding cells. […] All concentrations of cysteamine (50, 20, 8, 3, 1.5 micromolar) tested were non-cytotoxic indicating an acceptable therapeutic index.
Experiments were conducted during development of embodiments herein using a fully developed high-content screening pipeline to screen approved drugs against SARS Cov-2, the causative agent of COVID-19. A high throughput screen of FDA-approved drugs was conducted to determine the efficacy in a SARS-CoV-2 infectivity assay. This high content bioimaging-based assay has proven to be highly robust and informative, and clearly differentiates between infected and uninfected cells (FIG. 2). This high-content screen identifies individual agents effective in reducing viral infectivity or replication by imaging individual SARS Cov-2 infected cells. A screen of 1,200 compounds was conducted through the validated assay platform. Remdesivir, a viral replication inhibitor, was selected as a positive control, which results in 100% efficacy.
Cysteamine was evaluated for its antiviral effects at 5 doses with 9 replicates at each dose for a total of 45 independent experiments. Automated image analysis was performed to quantitate the number and percentage of infected cells and that was normalized to the infected and vehicle (DMSO) treated wells and the uninfected and vehicle treated wells representing 0-100% efficacy, as shown on the y-axis dose response plot for cysteamine anti-SARS-CoV-2 (FIG. 3).

[2] = system: epithelial fibroblasts; conditions: concentrations up to 10 μM; cited from earlier work
[3] = aqueous 0.1% and 0.5% (10 mM and 50 mM); cited from earlier work
[4] = aqueous 0.1% and 0.5%, topical; cited from earlier work
[5] = system: Huh7 cells; test: Cytotoxicity in the Huh7 infectivity assay; type: cell-based; conditions: 50, 20, 8, 3, 1.5 micromolar
Description: as §1

[6] = system: HTLV-IIIB strain of HIV-1; conditions: 100 μM; CEM cells; cited from earlier work
[7] = system: HIV-1 (4 primary isolates and 2 laboratory strains); conditions: cited from earlier work
[8] = system: SARS-CoV-2 WA wild type; test: Virus pre-incubation, plaque formation in TMPRSS cells; type: cell-based; conditions: Severe acute respiratory syndrome coronavirus 2, 2 h; 5 mM, 120 min incubation

Row | Compound | viral infection relative to the negative control ([1]; 8 micromolar, Huh7 cells, 0.2 MOI, 48 hours, syncytia present) | infected cells / nucleocapsid staining ([1]; 20 micromolar, Huh7 cells, 0.2 MOI, 48 hours) | elimination of SARS-CoV-2 infection ([1]; 50 micromolar, Huh7 cells, 0.2 MOI, 48 hours) [%] | pEC50 ([1]; Huh7 cells, 0.2 MOI, 48 hours, read-out: EC50 (concentration at 50% effect)) | efficacy in preventing SARS-CoV-2 infection [1] [%] | effect on growth rate [2] | safety via the Draize test [3] | reduction of corneal cystine crystals [4] | tolerability in chronic use [4] | cytotoxicity [5] | inhibition of cytotoxicity [6] [%] | viral inhibition ([7]; 200 μM, lymphocytes) | viral inhibition ([7]; 100 microM, macrophages) | antiviral effect of combination ([7]; in conjunction with zidovudine or didanosine, without concomitant increases in toxicity) | inhibition at 5000 µM [8] [%]
1 | 2-aminoethanethiol [cysteamine] | reduced viral infection relative to the negative control | small percentage of infected cells that have a diminished nucleocapsid staining | 100 | ~5.30 | ~100 | no effect on growth rate | safe | effective in reducing the cystine crystals | well-tolerated | non-cytotoxic | 100 | More than 90% | More than 90% | additive antiviral effect | 
2 | CCC(CC)COC(=O)[C@H](C)N[P@](=O)(OC[C@H]1O[C@@](C#N)(c2ccc3c(N)ncnn23)[C@H](O)[C@@H]1O)Oc1ccccc1 [Remdesivir] |  |  |  |  | 100 |  |  |  |  |  |  |  |  |  | 
3 | NCCS [cysteamine HCl] |  |  |  |  |  |  |  |  |  |  |  |  |  |  | 85 to 95
